Experimental data: patent US20260334439A1, “BCAT2 INHIBITORS” (Agios Pharmaceuticals, Inc., priority 2023, published 2026)

Key:
[1] = target: T1, BCAT2 (Homo sapiens, UniProt O15382); assay: BCAT2 cell inhibition using engineered A549 cells (MUT KO, BCAT1 KO; 13C6-KMV formation by LC-MS/MS); assay type: cell-based; design: expressed endogenous BCAT2; endogenous in cells; host or cells: A549 cells, MUT knockout and BCAT1 knockout
T1 sequence (O15382 28-392): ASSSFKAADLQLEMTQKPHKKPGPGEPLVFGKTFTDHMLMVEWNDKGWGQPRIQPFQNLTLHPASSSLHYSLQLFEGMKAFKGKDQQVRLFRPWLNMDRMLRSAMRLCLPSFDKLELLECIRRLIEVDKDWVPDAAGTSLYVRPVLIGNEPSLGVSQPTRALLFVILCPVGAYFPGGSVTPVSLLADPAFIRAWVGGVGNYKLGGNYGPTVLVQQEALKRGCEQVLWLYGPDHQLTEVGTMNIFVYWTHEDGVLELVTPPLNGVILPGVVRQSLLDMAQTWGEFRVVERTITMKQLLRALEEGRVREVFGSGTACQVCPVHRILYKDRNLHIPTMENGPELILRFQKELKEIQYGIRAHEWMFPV
Source text: Endogenous Methylmalonyl-CoA Mutase (MUT) and Branched Chain Aminotransferase 1 (BCAT1) in A549 cells was knocked out by CRISPR/CAS9 using the targeting system from TransOMIC Technologies. The following guide sequence was cloned into pCLIP-ALL-EFS-Blast vector to target human MUT: […] (SEQ ID NO: 35). The following guide sequence was cloned into pCLIP-ALL-EFS-Puro vector to target human BCAT1: […] (SEQ ID NO: 36). The resulting plasmids were co-transfected into 293T cells with VSV-G, P-PEX, and Fugene-6. Lentivirus was harvested and A549 cells were first transduced with lentivirus targeting MUT and polybrene. After genetic selection with blasticidin clonal selection was performed and validated via western blot analysis to confirm MUT was no longer expressed. These MUT KO cells were then transduced with lentivirus targeting BCAT1 and polybrene. After selection with puromycin clonal selection was performed and clones were validated via western blot analysis to confirm BCAT1 was no longer expressed in these cells. The result was an engineered A549 cell line that expressed endogenous BCAT2.
For KMV cell assays, on day 1, 25,000 cells/100 μL EMEM (10% FBS) were seeded in each well of a 96-well plate. On day 2, medium was replaced with 50 μL fresh EMEM (10% dialyzed FBS) containing 2× the assay concentration of experimental compound. After 15 minutes, 50 μL of 800 uM ^15N,^13C6-Isoleucine in EMEM (10% dialyzed FBS) was added to each well and incubated for 24 hours. On day 3, 50 μL of media from each well was collected and transferred to another 96-well plate for ^13C6-3-Methyl-2-Oxopentanoic Acid (KMV) analysis via LC-MS/MS. In the remaining assay wells 50 μL of Promega Glo CTG reagent was added and luminescence was measured as a cell viability readout.
For LC-MS/MS analysis 5 μL of cell assay media from each well was transferred to a 96-well plate and 45 μL of ACN:0.1% NaOH (50:50, v/v)^+0.20 nM d8-KMV was added and mixed on a shaker. 15 μL was transferred to a new 96-well plate and 15 μL of 10 mg/mL PFBHA solution was added and mixed on the shaker. The reaction was placed on ice for 30 minutes and quenched with 10 μL of ACN: Acetone (50:50, v/v) on a shaker. The resulting mixture was diluted with 100 μL of ACN:0.1% NaOH (50:50, v/v) on a shaker. 10 μL of sample were injected on the Shimadzu 20AD LC-MS/MS to quantify ^13C6-KMV.
Where a compound was tested multiple times, the average value of the tests is reported.

[2] = target: T1, BCAT2; assay: BCAT2 in vitro enzyme inhibition assay (hBCAT2, glutamate dehydrogenase/diaphorase/resazurin coupled fluorescence read); assay type: biochemical; details: hBCAT2, 1 h preincubation at 25° C., one hour reaction; average where tested multiple times
Method in brief: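 Coupled GDH/diaphorase/resazurin fluorescence (Ex 540/Em 590) read after 1 h reaction at 25 °C, SDS-stopped; enzyme (0.33 μg/mL in mix) first preincubated 1 h with compound, 10-point 3-fold series from 100 μM final, Tris pH 8.0 buffer with NaCl, BSA; technical duplicates, averaged across tests.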

Row | IC50 [1] | IC50 [2] | Compound
1 | < 0.1 µM | < 0.1 µM | CCOc1ncc(Cl)cc1C(=O)N[C@H]1CCC[C@@H](n2c(-c3ccccc3F)nc3cnc(-c4nc[nH]n4)cc32)C1 [Example 23, 5-chloro-2-ethoxy-N-((1S,3R)-3-(2-(2-fluorophenyl)-6-(1H-1,2,4-triazol-3-yl)-1H-imidazo[4,5-c]pyridin-1-yl)cyclohexyl)nicotinamide]
2 | < 0.1 µM | < 0.1 µM | O=C(N[C@H]1CCC[C@@H](n2c(-c3ccccc3F)nc3cnc(-c4nc[nH]n4)cc32)C1)c1ccc(Cl)cn1 [Example 13, 5-chloro-N-((1S,3R)-3-(2-(2-fluorophenyl)-6-(1H-1,2,4-triazol-3-yl)-1H-imidazo[4,5-c]pyridin-1-yl)cyclohexyl)picolinamide]
3 | < 0.1 µM | < 0.1 µM | N#Cc1ccc(F)cc1C(=O)N[C@H]1CCC[C@@H](n2c(-c3ccccc3F)nc3cnc(-c4nc[nH]n4)cc32)C1 [Example 98, 2-cyano-5-fluoro-N-((1S,3R)-3-(2-(2-fluorophenyl)-6-(4H-1,2,4-triazol-3-yl)-1H-imidazo[4,5-c]pyridin-1-yl)cyclohexyl)benzamide]
4 | 0.1 to 0.5 µM | < 0.1 µM | O=C1c2ccc(F)cc2CN1[C@H]1CCC[C@@H](n2c(-c3ccccc3F)nc3cnc(-c4nc[nH]n4)cc32)C1 [Example 176, 5-fluoro-2-((1S,3R)-3-(2-(2-fluorophenyl)-6-(1H-1,2,4-triazol-3-yl)-1H-imidazo[4,5-c]pyridin-1-yl)cyclohexyl)isoindolin-1-one]
5 | < 0.1 µM | < 0.1 µM | O=C1c2cc(Cl)ccc2OCN1[C@H]1CCC[C@@H](n2c(-c3ccccc3F)nc3cnc(-c4nc[nH]n4)cc32)[C@@H]1O [Example 213, 6-chloro-3-((1S,2S,3R)-3-(2-(2-fluorophenyl)-6-(1H-1,2,4-triazol-3-yl)-1H-imidazo[4,5-c]pyridin-1-yl)-2-hydroxycyclohexyl)-2,3-dihydro-4H-benzo[e][1,3]oxazin-4-one]
6 | < 0.1 µM | < 0.1 µM | O=C1c2cc(Cl)ccc2OCN1[C@H]1CCC[C@@H](n2c(-c3ccccc3F)nc3cnc(-c4nc[nH]n4)cc32)C1 [Example 202, 6-chloro-3-((1S,3R)-3-(2-(2-fluorophenyl)-6-(1H-1,2,4-triazol-3-yl)-1H-imidazo[4,5-c]pyridin-1-yl)cyclohexyl)-2,3-dihydro-4H-benzo[e][1,3]oxazin-4-one]
7 | < 0.1 µM | < 0.1 µM | CO[C@H]1C[C@H](NC(=O)c2cc(Cl)ccc2OCCO)C[C@H](n2c(-c3ccccc3F)nc3cnc(-c4nc[nH]n4)cc32)C1 [Example 119, 5-chloro-N-((1R,3S,5S)-3-(2-(2-fluorophenyl)-6-(1H-1,2,4-triazol-3-yl)-1H-imidazo[4,5-c]pyridin-1-yl)-5-methoxycyclohexyl)-2-(2-hydroxyethoxy)benzamide]
8 | < 0.1 µM | < 0.1 µM | O=C(N[C@H]1CCC[C@@H](n2c(-c3ccccc3OC(F)F)nc3cnc(-c4nc[nH]n4)cc32)C1)c1cc(F)ccn1 [compound 30]
9 | < 0.1 µM | < 0.1 µM | CN1C[C@H](NC(=O)c2cc(Cl)ccn2)C[C@H](n2c(-c3ccccc3OC(F)F)nc3cnc(-c4nc[nH]n4)cc32)C1 [compound 141]
10 | < 0.1 µM | < 0.1 µM | CO[C@H]1C[C@H](NC(=O)c2cc(F)ccc2F)C[C@H](n2c(-c3ccccc3F)nc3cnc(-c4nc[nH]n4)cc32)C1 [Example 122, 2,5-difluoro-N-((1R,3S,5S)-3-(2-(2-fluorophenyl)-6-(1H-1,2,4-triazol-3-yl)-1H-imidazo[4,5-c]pyridin-1-yl)-5-methoxycyclohexyl)benzamide]
11 | < 0.1 µM | < 0.1 µM | COCCOc1ccc(F)cc1C(=O)N[C@H]1CCC[C@@H](n2c(-c3ccccc3F)nc3cnc(-c4nc[nH]n4)cc32)C1 [Example 59, 5-fluoro-N-((1S,3R)-3-(2-(2-fluorophenyl)-6-(1H-1,2,4-triazol-3-yl)-1H-imidazo[4,5-c]pyridin-1-yl)cyclohexyl)-2-(2-methoxyethoxy)benzamide]
12 | < 0.1 µM | < 0.1 µM | O=C(N[C@H]1CCC[C@@H](n2c(-c3ccccc3F)nc3cnc(-c4nc[nH]n4)cc32)C1)c1cc(Cl)cc2ccoc12 [Example 31, 5-chloro-N-((1S,3R)-3-(2-(2-fluorophenyl)-6-(1H-1,2,4-triazol-3-yl)-1H-imidazo[4,5-c]pyridin-1-yl)cyclohexyl)benzofuran-7-carboxamide]
13 | < 0.1 µM | < 0.1 µM | CN1CC(NC(=O)c2cc(Cl)ccc2O)C[C@H](n2c(-c3ccccc3F)nc3cnc(-c4nc[nH]n4)cc32)C1 (stereo in doubt) [Example 143, 5-chloro-N-(5-(2-(2-fluorophenyl)-6-(1H-1,2,4-triazol-3-yl)-1H-imidazo[4,5-c]pyridin-1-yl)-1-methylpiperidin-3-yl)-2-hydroxybenzamide]
14 | 0.1 to 0.5 µM | < 0.1 µM | Cc1coc(-c2cc3c(cn2)nc(-c2ccccc2C#N)n3[C@@H]2CCC[C@H](NC(=O)c3cc(F)ccc3F)C2)n1 [Example 93, N-((1S,3R)-3-(2-(2-cyanophenyl)-6-(4-methyloxazol-2-yl)-1H-imidazo[4,5-c]pyridin-1-yl)cyclohexyl)-2,5-difluorobenzamide]
15 | 0.1 to 0.5 µM | < 0.1 µM | CO[C@H]1C[C@H](N2Cc3ccc(F)cc3C2=O)C[C@H](n2c(-c3c(O)cccc3F)nc3cnc(-c4nc[nH]n4)cc32)C1 [Example 192, 6-fluoro-2-((1R,3S,5R)-3-(2-(2-fluoro-6-hydroxyphenyl)-6-(1H-1,2,4-triazol-3-yl)-1H-imidazo[4,5-c]pyridin-1-yl)-5-methoxycyclohexyl)isoindolin-1-one]
16 | 0.1 to 0.5 µM | < 0.1 µM | CC(Oc1ccc(Cl)cc1C(=O)N[C@H]1CCC[C@@H](n2c(-c3ccccc3F)nc3cnc(-c4nc[nH]n4)cc32)C1)C(F)(F)F (stereo partly drawn) [Example 88, 5-chloro-N-((1S,3R)-3-(2-(2-fluorophenyl)-6-(1H-1,2,4-triazol-3-yl)-1H-imidazo[4,5-c]pyridin-1-yl)cyclohexyl)-2-((1,1,1-trifluoropropan-2-yl)oxy)benzamide]
17 | 0.5 to 1 µM | < 0.1 µM | O=C(N[C@H]1CCC[C@@H](n2c(-c3ccccc3F)nc3cnc(-c4nc[nH]n4)cc32)C1)c1cc(Cl)ccc1OC(F)(F)F [Example 4, 5-chloro-N-((1S,3R)-3-(2-(2-fluorophenyl)-6-(1H-1,2,4-triazol-3-yl)-1H-imidazo[4,5-c]pyridin-1-yl)cyclohexyl)-2-(trifluoromethoxy)benzamide]
18 | < 0.1 µM | < 0.1 µM | O=C1c2c(F)cccc2CN1[C@H]1CCC[C@@H](n2c(-c3ccccc3F)nc3cnc(-c4nc[nH]n4)cc32)C1 [Example 175, 7-fluoro-2-((1S,3R)-3-(2-(2-fluorophenyl)-6-(1H-1,2,4-triazol-3-yl)-1H-imidazo[4,5-c]pyridin-1-yl)cyclohexyl)isoindolin-1-one]
19 | 0.1 to 0.5 µM | < 0.1 µM | CC(C)Cc1nc2ccc(-c3ncccn3)cc2n1[C@@H]1CCC[C@H](NC(=O)c2cc(Cl)ccn2)[C@H]1O [Example 219, 4-chloro-N-((1S,2R,3R)-2-hydroxy-3-(2-isobutyl-6-(pyrim-idin-2-yl)-1H-benzo[d]imidazol-1-yl)cyclohexyl)picolinamide]
20 | < 0.1 µM | < 0.1 µM | O=C1c2cc(F)ccc2CN1[C@H]1CCC[C@@H](n2c(-c3c(F)cccc3OC(F)F)nc3cnc(-c4nc[nH]n4)cc32)[C@@H]1O [compound 189]
